Earlier results as cited in article PMC7884382, “A Phase 1 study of RO6870810, a novel bromodomain and extra-terminal protein inhibitor, in patients with NUT carcinoma, other solid tumours, or diffuse large B-cell lymphoma” (British Journal of Cancer, 2020).

Legend:
NC = settings: cited from earlier work
serotonin receptors = tested on: serotonin receptors; set-up: method as in PMID 20871596; settings: cited from earlier work
[1] = cited from earlier work
DLBCL = tested on: DLBCL; set-up: method as in PMID 27063978; settings: cited from earlier work

Q: With Cc1nnn(C)c1-c1cnc2c3ccc(C(C)(C)O)cc3n([C@H](c3ccccc3)C3CCOCC3)c2c1 [BMS-986158] as the compound, how does the “Response in a patient with NC harbouring BRD3-NUT fusion” value (NC) read?
A: Its value is “minor but sustained regression”.

Q: Which “Interaction with serotonin receptors” value (serotonin receptors) does the source give for Cc1sc2c(c1C)C(c1ccc(Cl)cc1)=N[C@@H](CC(=O)OC(C)(C)C)c1nnc(C)n1-2 [JQ1] here?
A: Its value is “interaction with serotonin receptors”.

Q: For Cc1sc2c(c1C)C(c1ccc(Cl)cc1)=N[C@@H](CC(=O)Nc1ccc(O)cc1)c1nnc(C)n1-2 [birabresib], which half-life [1] is on record?
A: Its half-life is 4 to 5 h.

Q: And the CRs (DLBCL; among 22 patients with DLBCL)?
A: The CRs was 2.

Q: What about the PR (DLBCL; among 22 patients with DLBCL) of the same compound?
A: The PR was 1.

Q: What about the “Responders among patients with MYC-expressing DLBCL” value (DLBCL) of the same compound?
A: The value was “one of five”.

Q: With CCNC(=O)C[C@@H]1N=C(c2ccc(Cl)cc2)c2cc(OC)ccc2-n2c(C)nnc21 [molibresib] as the compound, how does the “Responses by NUT fusion among patients with NC” value (NC) read?
A: The value was “PRs (confirmed and unconfirmed) were mostly observed in tumours with BRD3-NUT fusions”.
